What is called Ki is the dissociation constant of the complex between target and ligand, obtained from inhibition or displacement. A low value points to a stronger hold on the target. For orientation: IC50 means the concentration that gives 50% inhibition.

Each structure is given as a SMILES string.

Results on 24 molecules are retold here after patent publication US20110166121A1 (LG LIFE SCIENCES LTD., priority 2008, published 2011).

The subject of the first assay is Human platelet aggregation caused by ADP. Kind of assay: Inhibition of ADP-induced platelet aggregation (Mimic-human PRP). Format: cell-based. The following applies: 20 μM ADP, human platelet concentrate diluted with PPP, absorption at 595 nm. A digest of the protocol: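 Ki came from non-linear sigmoidal fits of inhibition, measured as the 3-min rise in absorbance at 595 nm after 20 μM ADP, relative to 0/20 μM ADP controls. Platelets (3–4×10^8/mL in PPP-diluted human PRP) were exposed to 0.01–30 μM compound for 20 min at room temperature beforehand.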
`CCCc1cc2c(N3CCn4c(nnc4C(F)(F)F)C3)nc(Oc3ccc(CC(=O)O)cc3)nc2s1` [Example 3-40, {4-[6-Propyl-4-(3-trifluoromethyl-5,6-dihydro-8H-[1,2,4]triazolo[4,3-a]pyrazin-7-yl)-thieno[2,3-d]pyrimidin-2-yloxy]-phenyl}-acetic acid]: the affinity corresponds to a Ki of 1200 nM.

The molecule `CCCc1cc2c(N3CCn4c(nnc4C(F)(F)F)C3)nc(NCCOCC)nc2s1` [Example 1-122, (2-Ethoxy-ethyl)-[6-propyl-4-(3-trifluoromethyl-5,6-dihydro-8H-[1,2,4]triazolo[4,3-a]pyrazin-7-yl)-thieno[2,3-d]pyrimidin-2-yl]-amine] came in with an inhibition constant Ki of 467 nM.

On to `CCCc1cc2c(N3CCn4c(nnc4C(F)(F)C(F)(F)F)C3)nc(OCC(O)CO)nc2s1` (stereo not shown) [Example 6-8, 3-[4-(3-Pentafluoroethyl-5,6-dihydro-8H-[1,2,4]triazolo[4,3-a]pyrazin-7-yl)-6-propyl-thieno[2,3-d]pyrimidin-2-yloxy]-propane-1,2-diol], for which the Ki was 95 nM. Against the preceding molecule, the Ki is about 4.9-fold lower.

With `CCCc1cc2c(N3CCn4c(nnc4C(F)(F)F)C3)nc(Oc3ccccc3C(=O)O)nc2s1` [Example 3-33, 2-[6-Propyl-4-(3-trifluoromethyl-5,6-dihydro-8H-[1,2,4]triazolo[4,3-a]pyrazin-7-yl)-thieno[2,3-d]pyrimidin-2-yloxy]-benzoic acid], the Ki is over 4000 nM.

Another assay deals with T1, Human P2Y12 receptor (Homo sapiens, UniProt Q9H244).
T1 construct: expressed in transfected cells; host or cells: HEK cells
T1 sequence (Q9H244 whole entry): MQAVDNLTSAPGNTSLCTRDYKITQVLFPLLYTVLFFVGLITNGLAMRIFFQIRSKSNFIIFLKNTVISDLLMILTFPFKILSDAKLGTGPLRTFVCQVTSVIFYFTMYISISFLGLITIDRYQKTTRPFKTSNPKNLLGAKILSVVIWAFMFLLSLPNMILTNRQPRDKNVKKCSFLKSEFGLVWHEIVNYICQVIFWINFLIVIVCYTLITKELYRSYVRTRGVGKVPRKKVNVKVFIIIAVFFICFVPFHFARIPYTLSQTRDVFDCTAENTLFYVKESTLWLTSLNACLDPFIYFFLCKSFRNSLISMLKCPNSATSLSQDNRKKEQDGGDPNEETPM
As to the kind of experiment: Human P2Y12 receptor cell membrane binding assay with [3H] 2-Mes-ADP. The following applies: 1 nM [3H] 2-Mes-ADP, membranes of HEK cells expressing P2Y12 receptor; read-out: Binding activity (IC50). The protocol: Human P2Y12 Receptor Cell Membrane Binding Assay with [^3H] 2-Mes-ADP
Whether test compounds bind to P2Y12 receptor is measured by [3H]-2MesADP binding in HEK cells expressing P2Y12 receptor. The efficacy according to the amount of test compound can be known through the above test, competitive binding test to P2Y12 receptor, in which the binding material (2-Mes-ADP) is labeled with radioactivity isotope and then the extent of inhibition against the binding of radioactively labeled material is measured.
Preparation of P2Y12 Membrane Protein Fraction
Harvested P2Y12 cells were resuspended with Hypotonic buffer (10 mM HEPES, 10 mM NaCl, 1 mM EDTA, 1 mM EGTA pH 7.4) containing protease inhibitor cocktail. Following the incubation on ice for 15 min, cells were homogenized on ice (Glass/Teflon homogenizer; 1,000 rpm, 10 strokes). The supernant was taken from centrifugation at 500×g for 15 min and then recentrifuged the supernant at 30,000 rpm for 30 min. The membrane pellet was adjusted to 1 mg/mL concentration and stored at −80° C.
P2Y12 Receptor Cell Membrane Binding Assay with [3H] 2-Mes-ADP
The volume of 100 μL of 200 μg membrane protein was aliquoted into 96 well plate. 50 μL volume of test compounds and [^3H] 2-Mes-ADP (final: 1 nM) were added into each well. The total reaction of 0.2 ml/well was incubated for 1 hour at R.T. The reaction was terminated by filtration through GF/B filter using a 96-well cell harvester. […] Radioactivity bound to P2Y12 receptor membrane was counted in a scintillation counter. Total binding was determined with CPM of test group having no compound and non-specific binding was determined with CPM of test group containing 10 μM 2-Mes-ADP. Binding inhibition percent was calculated as follows: [100−(specific binding in the presence of test material/specific binding in the absence of test material×100)].
Take `CCCc1cc2c(N3CCn4c(nnc4C(F)(F)F)C3)nc(Oc3ccc(CC(=O)O)cc3)nc2s1` [Example 3-40, {4-[6-Propyl-4-(3-trifluoromethyl-5,6-dihydro-8H-[1,2,4]triazolo[4,3-a]pyrazin-7-yl)-thieno[2,3-d]pyrimidin-2-yloxy]-phenyl}-acetic acid]: the IC50 was found to be 230 nM.

As to `CCCc1cc2c(N3CCn4c(nnc4C(F)(F)F)C3)nc(NCCOCC)nc2s1` [Example 1-122, (2-Ethoxy-ethyl)-[6-propyl-4-(3-trifluoromethyl-5,6-dihydro-8H-[1,2,4]triazolo[4,3-a]pyrazin-7-yl)-thieno[2,3-d]pyrimidin-2-yl]-amine], the IC50 was 220 nM.

Turning to `CCCc1cc2c(N3CCn4c(nnc4C(F)(F)C(F)(F)F)C3)nc(OCC(O)CO)nc2s1` (stereo not shown) [Example 6-8, 3-[4-(3-Pentafluoroethyl-5,6-dihydro-8H-[1,2,4]triazolo[4,3-a]pyrazin-7-yl)-6-propyl-thieno[2,3-d]pyrimidin-2-yloxy]-propane-1,2-diol], the IC50 worked out at 130 nM.

`CCCc1cc2c(N3CCn4c(nnc4C(F)(F)F)C3)nc(Oc3ccccc3C(=O)O)nc2s1` [Example 3-33, 2-[6-Propyl-4-(3-trifluoromethyl-5,6-dihydro-8H-[1,2,4]triazolo[4,3-a]pyrazin-7-yl)-thieno[2,3-d]pyrimidin-2-yloxy]-benzoic acid]: the IC50 worked out at 2220 nM.

Consider `CCCc1cc2c(N3CCn4c(nnc4C(F)(F)F)C3)nc(C(=O)O)nc2s1` [Example 4-2, 6-Propyl-4-(3-trifluoromethyl-5,6-dihydro-8H-[1,2,4]triazolo[4,3-a]pyrazin-7-yl)-thieno[2,3-d]pyrimidine-2-carboxylic acid], for which the IC50 is 3050 nM.

`CCc1cc2c(N3CCn4cc(C(F)(F)F)nc4C3)nc(N3CCNC(=O)C3)nc2s1` [Example 6-22, 4-[6-Ethyl-4-(2-trifluoromethyl-5,6-dihydro-8H-imidazo[1,2-a]pyrazin-7-yl)-thieno[2,3-d]pyrimidin-2-yl]-piperazin-2-one]: the IC50 came to 10000 nM.

Take `CCc1cc2c(N3CCc4cc(OC)c(OC)cc4C3)nc(N3CCNC(=O)C3)nc2s1` [Example 6-28, 4-[4-(6,7-Dimethoxy-3,4-dihydro-1H-isoquinolin-2-yl)-6-ethyl-thieno[2,3-d]pyrimidin-2-yl]-piperazin-2-one]: the IC50 worked out at 5600 nM.

As to `CCc1cc2c(N3CCc4[nH]nc(C(F)(F)F)c4C3)nc(N3CCNC(=O)C3)nc2s1` [Example 6-26, 4-[6-Ethyl-4-(3-trifluoromethyl-1,4,6,7-tetrahydro-pyrazolo[4,3-c]pyridin-5-yl)-thieno[2,3-d]pyrimidin-2-yl]-piperazin-2-one], the IC50 is 16400 nM.

On to `CCCc1cc2c(N3CCc4c(nc(C(F)(F)F)nc4C(F)(F)F)C3)nc(N3CCNC(=O)C3)nc2s1` [Example 6-33, 4-[4-(2,4-Bis-trifluoromethyl-5,8-dihydro-6H-pyrido[3,4-d]pyrimidin-7-yl)-6-propyl-thieno[2,3-d]pyrimidin-2-yl]-piperazin-2-one], for which the 50% inhibitory concentration (IC50) is 2370 nM.

For the molecule `Cc1cc2c(N3CCn4c(nnc4C(F)(F)F)C3)nc(N3CCNC(=O)C3)nc2s1` [Example 2-1, 4-[6-Methyl-4-(3-trifluoromethyl-5,6-dihydro-8H-[1,2,4]triazolo[4,3-a]pyrazin-7-yl)-thieno[2,3-d]pyrimidin-2-yl]-piperazin-2-one], the IC50 turned out to be 1100 nM.

Consider `CCCc1cc2c(N3CCn4c(nnc4C(F)(F)F)C3)nc(NCC(O)CO)nc2s1` (stereo not shown) [Example 1-2, 3-[6-Propyl-4-(3-trifluoromethyl-5,6-dihydro-8H-[1,2,4]triazolo[4,3-a]pyrazin-7-yl)-thieno[2,3-d]pyrimidin-2-ylamino]-propane-1,2-diol], for which the IC50 turned out to be 160 nM.

For `CCc1nc2c(N3CCn4c(nnc4C(F)(F)F)C3)nc(N3CCNC(=O)C3)nc2s1` [Example 5-1, 4-[2-Ethyl-7-(3-trifluoromethyl-5,6-dihydro-8H-[1,2,4]triazolo[4,3-a]pyrazin-7-yl)-thiazolo[5,4-d]pyrimidin-5-yl]-piperazin-2-one], the IC50 is 680 nM.

Consider `CCc1cc2c(N3CCn4c(nnc4C(F)(F)F)C3)nc(C(=O)NCC(=O)O)nc2s1` [Example 4-4, {[6-Ethyl-4-(3-trifluoromethyl-5,6-dihydro-8H-[1,2,4]triazolo[4,3-a]pyrazin-7-yl)-thieno[2,3-d]pyrimidine-2-carbonyl]amino}acetic acid], for which the IC50 was found to be 1000 nM.

With `CCCc1cc2c(N3CCn4c(nnc4C(F)(F)F)C3)nc(N3CCc4c(nc(C)nc4C(F)(F)F)C3)nc2s1` [Example 1-80, 2-Methyl-7-[6-propyl-4-(3-trifluoromethyl-5,6-dihydro-8H-[1,2,4]triazolo[4,3-a]pyrazin-7-yl)-thieno[2,3-d]pyrimidin-2-yl]-4-trifluoromethyl-5,6,7,8-tetrahydro-pyrido[3,4-d]pyrimidine], the IC50 stood at 43 nM.

Turning to `CCc1cc2c(N3CCc4c([nH]n(CCO)c4=O)C3)nc(N3CCNC(=O)C3)nc2s1` [Example 6-43, 6-[6-Ethyl-2-(3-oxo-piperazin-1-yl)-thieno[2,3-d]pyrimidin-4-yl]-2-(2-hydroxy-ethyl)-1,2,4,5,6,7-hexahydro-pyrazolo[3,4-c]pyridin-3-one], the IC50 stood at 46400 nM.

`CCc1cc2c(N3CCn4cc(C(F)(F)F)nc4C3)nc(OCC(O)CO)nc2s1` (stereo not shown) [Example 6-23, 3-[6-Ethyl-4-(2-trifluoromethyl-5,6-dihydro-8H-imidazo[1,2-a]pyrazin-7-yl)-thieno[2,3-d]pyrimidin-2-yloxy]-propane-1,2-diol]: the IC50 amounted to 12000 nM.

On to `CCc1cc2c(N3CCn4c(nnc4-c4ccccc4)C3)nc(N3CCNC(=O)C3)nc2s1` [Example 6-19, 4-[6-Ethyl-4-(3-phenyl-5,6-dihydro-8H-[1,2,4]triazolo[4,3-a]pyrazin-7-yl)-thieno[2,3-d]pyrimidin-2-yl]-piperazin-2-one], for which the IC50 is 1950 nM.

`CCc1cc2c(N3CCc4c([nH]n(-c5ccccc5)c4=O)C3)nc(N3CCNC(=O)C3)nc2s1` [Example 6-44, 6-[6-Ethyl-2-(3-oxo-piperazin-1-yl)-thieno[2,3-d]pyrimidin-4-yl]-2-phenyl-1,2,4,5,6,7-hexahydro-pyrazolo[3,4-c]pyridin-3-one]: the IC50 came out at 21500 nM.

For `CCc1cc2c(N3CCc4[nH]ncc4C3)nc(N3CCNC(=O)C3)nc2s1` [Example 6-24, 4-[6-Ethyl-4-(1,4,6,7-tetrahydro-pyrazolo[4,3-c]pyridin-5-yl)-thieno[2,3-d]pyrimidin-2-yl]-piperazin-2-one], the IC50 amounted to 30000 nM.

Turning to `CCCc1cc2c(N3CCc4c(nc(-c5ccccc5)nc4C(F)(F)F)C3)nc(N3CCNC(=O)C3)nc2s1` [Example 6-38, 4-[4-(2-Phenyl-4-trifluoromethyl-5,8-dihydro-6H-pyrido[3,4-d]pyrimidin-7-yl)-6-propyl-thieno[2,3-d]pyrimidin-2-yl]-piperazin-2-one], the half-maximal inhibitory concentration (IC50) amounted to 4420 nM.

For `CCc1cc2c(N3CCn4ccnc4C3)nc(OCC(O)CO)nc2s1` (stereo not shown) [Example 6-21, 3-[4-(5,6-Dihydro-8H-imidazo[1,2-a]pyrazin-7-yl)-6-ethyl-thieno[2,3-d]pyrimidin-2-yloxy]-propane-1,2-diol], the IC50 is 14500 nM.

As for `CC(C)c1cc2c(N3CCn4c(nnc4C(F)(F)F)C3)nc(NCCO)nc2s1` [Example 2-11, 2-[6-Isopropyl-4-(3-trifluoromethyl-5,6-dihydro-8H-[1,2,4]triazolo[4,3-a]pyrazin-7-yl)-thieno[2,3-d]pyrimidin-2-ylamino]-ethanol], the IC50 is 1820 nM.

Consider `CCc1cc2c(N3CCc4c(ncnc4C(F)(F)F)C3)nc(N3CCNC(=O)C3)nc2s1` [Example 6-30, 4-[6-Ethyl-4-(4-trifluoromethyl-5,8-dihydro-6H-pyrido[3,4-d]pyrimidin-7-yl)-thieno[2,3-d]pyrimidin-2-yl]-piperazin-2-one], for which the 50% inhibitory concentration (IC50) was 1040 nM.

As to `CCc1cc2c(N3CCc4c(nc(C(F)(F)F)nc4C(F)(F)F)C3)nc(OCC(O)CO)nc2s1` (stereo not shown) [Example 6-32, 3-[4-(2,4-Bis-trifluoromethyl-5,8-dihydro-6H-pyrido[3,4-d]pyrimidin-7-yl)-6-ethyl-thieno[2,3-d]pyrimidin-2-yloxy]-propane-1,2-diol], the IC50 came out at 4640 nM.
